Where a name gives a salt, the structure may show the parent alone. Read-outs that look alike come from different tables or passages of the source.

Test [1] deals with pERK in MKN1 cells. Briefly: pERK inhibition, In-Cell Western (LI-COR Odyssey), MKN1 cells. The class given is cell-based. The note with it: Homo sapiens. A digest of the protocol:
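MKN1 cells were exposed for about 0.5–1 h at 37 °C to nine 3-fold dilutions starting at 10 µM. Cells were then fixed in formaldehyde, permeabilised with methanol, and immunostained for pERK and GAPDH with near-infrared secondary antibodies. GAPDH-normalised pERK signal relative to vehicle gave % inhibition, from which IC50 was fitted.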

For test [2], the target named is T1, recombinant human SOS1 polypeptide (amino acids 560-1049) (Homo sapiens, UniProt Q07889).
T1 construct: corresponding to amino acids 560-1049, expressed in E. Coli; made in house; host or cells: E. coli
T1 sequence (Q07889 560-1049): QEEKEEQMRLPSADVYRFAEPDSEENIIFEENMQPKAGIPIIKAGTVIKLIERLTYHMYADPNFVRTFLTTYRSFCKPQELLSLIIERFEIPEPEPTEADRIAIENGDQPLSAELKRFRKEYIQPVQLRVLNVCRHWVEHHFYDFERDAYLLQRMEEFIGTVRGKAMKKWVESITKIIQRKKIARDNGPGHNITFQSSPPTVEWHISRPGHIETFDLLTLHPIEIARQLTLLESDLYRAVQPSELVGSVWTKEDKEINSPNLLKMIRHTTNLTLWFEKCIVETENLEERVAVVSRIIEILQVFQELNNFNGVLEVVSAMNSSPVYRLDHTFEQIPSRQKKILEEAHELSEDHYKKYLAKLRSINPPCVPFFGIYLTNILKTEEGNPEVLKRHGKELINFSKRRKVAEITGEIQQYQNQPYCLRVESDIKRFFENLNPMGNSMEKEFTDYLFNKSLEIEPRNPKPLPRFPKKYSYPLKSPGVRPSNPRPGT
In words: HTRF displacement assay: inhibition of labeled tracer binding to SOS1. The note with it: Table A1, Morrison equation for competitive binding.

Where [3] appears, read: MKN-1, Table B1, MKN1 or H358 cells (table does not say which), 0.5-1 hour incubation, read-out: IC50 (nM), pERK inhibition.
[4] abbreviates: MKN-1, read-out: IC50 (nM), pERK inhibition.

Turning to `CNc1cc2c(N[C@H](C)c3cccc(C#N)c3C)nnc(C)c2cc1F` [Example P-221, (R)-3-(1-((6-fluoro-4-methyl-7-(methylamino)phthalazin-1-yl)amino)ethyl)-2-methylbenzonitrile], the 50% inhibitory concentration (IC50) in test [1] (setting [3]) is 154 nM. Moreover, the Ki in test [2] stood at 8.75 nM.

For the compound `Cc1c(C#N)cccc1[C@@H](C)Nc1nnc(C)c2cc(F)c(N(C)C)cc12` [Example P-222, (R)-3-(1-((7-(dimethylamino)-6-fluoro-4-methylphthalazin-1-yl)amino)ethyl)-2-methylbenzonitrile], the IC50 in test [1] (setting [3]) was found to be 188 nM. Besides, in test [2], the inhibition constant Ki was 3.97 nM.

With `Cc1c(C#N)cccc1[C@@H](C)Nc1nnc(C)c2cc(F)c(N3CCC3)cc12` [Example P-223, (R)-3-(1-((7-(azetidin-1-yl)-6-fluoro-4-methylphthalazin-1-yl)amino)ethyl)-2-methylbenzonitrile formic acid salt], in test [1] (setting [4]), the concentration for half-maximal inhibition (IC50) was 141 nM. For the same compound, the Ki in test [2] is 9.3 nM.

Regarding `Cc1c(C#N)cccc1[C@@H](C)Nc1nnc(C)c2cnc(N3CCC3)cc12` [Example P-224, (R)-3-(1-((7-(azetidin-1-yl)-4-methylpyrido[3,4-d]pyridazin-1-yl)amino)ethyl)-2-methylbenzonitrile], the half-inhibitory concentration (IC50) in test [1] (setting [3]) came to 41.4 nM. Also, the Ki in test [2] is 3.62 nM.

As to `Cc1nnc(N[C@H](C)c2cccc(C(F)F)c2F)c2cc(N3CCC34CN(CCCF)C4)ncc12` [Example P-226, (R)-N-(1-(3-(difluoromethyl)-2-fluorophenyl)ethyl)-7-(6-(3-fluoropropyl)-1,6-diazaspiro[3.3]heptan-1-yl)-4-methylpyrido[3,4-d]pyridazin-1-amine formic acid salt], in test [1] (setting [4]), the IC50 was 62.3 nM. Moreover, the inhibition constant Ki in test [2] worked out at 0.288 nM.

Turning to `Cc1nnc(N[C@H](C)c2cccc(C(F)F)c2F)c2cc(N3CCN(CCCF)CC3)ncc12` [Example P-227, (R)-N-(1-(3-(difluoromethyl)-2-fluorophenyl)ethyl)-7-(4-(3-fluoropropyl)piperazin-1-yl)-4-methylpyrido[3,4-d]pyridazin-1-amine], in test [1] (setting [3]), the IC50 was found to be 223 nM. Also, the inhibition constant (Ki) in test [2] is 0.396 nM.

`Cc1c(C#N)cccc1[C@@H](C)Nc1nnc(C)c2cnc(N3CCN(CCCF)CC3)cc12` [Example P-229, (R)-3-(1-((7-(4-(3-fluoropropyl)piperazin-1-yl)-4-methylpyrido[3,4-d]pyridazin-1-yl)amino)ethyl)-2-methylbenzonitrile]: in test [1] (setting [3]), the half-maximal inhibitory concentration (IC50) is 59.3 nM. Further, the Ki in test [2] stood at 0.671 nM.

Take `Cc1c(C#N)cccc1[C@@H](C)Nc1nnc(C)c2cc(F)c(N3CCC34COC4)cc12` [Example P-230, (R)-3-(1-((6-fluoro-4-methyl-7-(6-oxa-1-azaspiro[3.3]heptan-1-yl)phthalazin-1-yl)amino)ethyl)-2-methylbenzonitrile]: in test [1] (setting [3]), the IC50 is 26 nM. Moreover, the Ki in test [2] worked out at 2.51 nM.

For the compound `Cc1c(C#N)cccc1[C@@H](C)Nc1nnc(C)c2cnc(N3CCC34COC4)cc12` [Example P-231, (R)-2-methyl-3-(1-((4-methyl-7-(6-oxa-1-azaspiro[3.3]heptan-1-yl)pyrido[3,4-d]pyridazin-1-yl)amino)ethyl)benzonitrile formic acid salt], the IC50 in test [1] (setting [4]) was found to be 4290 nM. The inhibitory constant (Ki) in test [2] came to 3.34 nM.

In the case of `Cc1nnc(N[C@H](C)c2cccc(C(F)F)c2F)c2cc(N3CCC34COC4)c(F)cc12` [Example P-232, (R)-N-(1-(3-(difluoromethyl)-2-fluorophenyl)ethyl)-6-fluoro-4-methyl-7-(6-oxa-1-azaspiro[3.3]heptan-1-yl)phthalazin-1-amine], in test [1] (setting [3]), the IC50 is 7130 nM. Besides, in test [2], the inhibition constant (Ki) came to 1.18 nM.

As for `Cc1nnc(N[C@H](C)c2cccc(C(F)F)c2F)c2cc(N3CCC34COC4)ncc12` [Example P-233, (R)-N-(1-(3-(difluoromethyl)-2-fluorophenyl)ethyl)-4-methyl-7-(6-oxa-1-azaspiro[3.3]heptan-1-yl)pyrido[3,4-d]pyridazin-1-amine], in test [1] (setting [3]), the IC50 is 18.8 nM. Moreover, the Ki in test [2] turned out to be 2.75 nM.

With `Cc1nnc(N[C@H](C)c2cccc(C(F)F)c2F)c2cc(N3CCC34CN(C)C4)c(F)cc12` [Example P-234, (R)-N-(1-(3-(difluoromethyl)-2-fluorophenyl)ethyl)-6-fluoro-4-methyl-7-(6-methyl-1,6-diazaspiro[3.3]heptan-1-yl)phthalazin-1-amine], the IC50 in test [1] (setting [3]) was 50.2 nM. Further, the inhibition constant (Ki) in test [2] came to 0.416 nM.

For `Cc1c(C#N)cccc1[C@@H](C)Nc1nnc(C)c2ccc(N3CCC34CN(C)C4)cc12` [Example P-235, (R)-2-methyl-3-(1-((4-methyl-7-(6-methyl-1,6-diazaspiro[3.3]heptan-1-yl)phthalazin-1-yl)amino)ethyl)benzonitrile formic acid salt], in test [1] (setting [4]), the half-inhibitory concentration (IC50) came out at 95.8 nM. Moreover, in test [2], the Ki was determined as 0.618 nM.

`Cc1nnc(N[C@H](C)c2cccc(C(F)F)c2F)c2cc(N3CCC34CN(C)C4)ccc12` [Example P-236, (R)-N-(1-(3-(difluoromethyl)-2-fluorophenyl)ethyl)-4-methyl-7-(6-methyl-1,6-diazaspiro[3.3]heptan-1-yl)phthalazin-1-amine]: the IC50 in test [1] (setting [3]) was determined as 42.1 nM. In addition, the Ki in test [2] is 0.596 nM.

In the case of `Cc1nnc(N[C@H](C)c2cccc(C(F)F)c2F)c2cc(N3CCC34CNC4)ncc12` [Example P-237, (R)-N-(1-(3-(difluoromethyl)-2-fluorophenyl)ethyl)-4-methyl-7-(1,6-diazaspiro[3.3]heptan-1-yl)pyrido[3,4-d]pyridazin-1-amine], the IC50 in test [1] (setting [3]) came out at 182 nM. In test [2], the inhibition constant Ki is 0.515 nM.

Take `Cc1nnc(N[C@H](C)c2cccc(C(F)F)c2F)c2cc(N3CCC34CN(C)C4)ncc12` [Example P-238, (R)-N-(1-(3-(difluoromethyl)-2-fluorophenyl)ethyl)-4-methyl-7-(6-methyl-1,6-diazaspiro[3.3]heptan-1-yl)pyrido[3,4-d]pyridazin-1-amine]: in test [1] (setting [3]), the IC50 was 17.7 nM. Moreover, the Ki in test [2] amounted to 0.4 nM.

As to `Cc1nnc(N[C@H](C)c2cccc(C(F)F)c2F)c2cc(-c3ccc(=O)n(C)c3)ncc12` [Example P-239, (R)-5-(1-((1-(3-(difluoromethyl)-2-fluorophenyl)ethyl)amino)-4-methylpyrido[3,4-d]pyridazin-7-yl)-1-methylpyridin-2(1H)-one], the half-maximal inhibitory concentration (IC50) in test [1] (setting [3]) came out at 606 nM. Also, the Ki in test [2] was 15.1 nM.

Values taken from patent publication US20250059182A1, “SOS1 INHIBITORS” (Mirati Therapeutics, Inc., priority 2021, published 2025).
